In paper PMC7022188 (Proceedings of the National Academy of Sciences of the …, 2020):

Tests used:
[1] = target: T1, ctPrp2-ctSpp2_211–254 complex (ctPrp2_270–921 with ctSpp2G-patch) (Thermochaetoides thermophila, UniProt G0SEG4); assay: ITC; assay type: binding
T1 sequence (G0SEG4 270-921): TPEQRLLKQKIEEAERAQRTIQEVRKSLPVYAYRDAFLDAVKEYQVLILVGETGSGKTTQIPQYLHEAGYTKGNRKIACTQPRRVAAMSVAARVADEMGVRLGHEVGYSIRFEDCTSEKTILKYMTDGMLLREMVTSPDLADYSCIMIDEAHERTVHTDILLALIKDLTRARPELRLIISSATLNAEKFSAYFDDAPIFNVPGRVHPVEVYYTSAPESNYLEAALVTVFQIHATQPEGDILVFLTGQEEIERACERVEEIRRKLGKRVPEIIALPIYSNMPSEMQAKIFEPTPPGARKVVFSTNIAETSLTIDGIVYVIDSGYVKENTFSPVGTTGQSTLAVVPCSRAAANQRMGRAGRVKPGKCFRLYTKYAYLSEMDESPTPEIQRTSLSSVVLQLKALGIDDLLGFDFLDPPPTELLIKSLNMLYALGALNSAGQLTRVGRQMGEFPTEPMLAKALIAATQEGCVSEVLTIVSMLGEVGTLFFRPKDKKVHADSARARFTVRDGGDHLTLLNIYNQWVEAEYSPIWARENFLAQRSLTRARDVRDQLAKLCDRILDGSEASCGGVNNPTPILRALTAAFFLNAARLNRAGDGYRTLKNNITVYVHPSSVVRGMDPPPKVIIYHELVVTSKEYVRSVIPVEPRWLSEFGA
T1 sequence (G0SFN3 211-254 partner): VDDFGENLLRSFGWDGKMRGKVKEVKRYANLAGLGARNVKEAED

[2] = target: ctPrp2 as used for ITC and for in-solution cross-linking (Chaetomium thermophilum); assay: ITC

Nc1ncnc2c1ncn2[C@@H]1O[C@H](COP(=O)(O)OP(=O)(O)O)[C@@H](O)[C@H]1O [ADP]
Kd [1]: ~172 nM

ctSpp2_(211–254), G-patch domain of Spp2 from Chaetomium thermophilum (domain or fragment)
Kd [2]: 720 nM
